Assays:
[1] = biological target: T1, HCV polymerase (NS5B) type 1b (Hepatitis C virus genotype 1b, UniProt P26663); experiment: Assay of enzyme (HCV polymerase) inhibitory activity, type 1b enzyme; assay type: biochemical, HCV BK strain (type 1b); conditions: HCV polymerase inhibitory activity (IC50), 1b, type 1b enzyme 0.5 μg/ml, 25° C., 60 min
T1 construct: a region encoding NS5B (J Virol 1991 March, 65(3), 1105-13, 544 amino acids after deletion of 47 amino acids on the C-terminal); 6xHis (C); made in house; host or cells: Escherichia coli
Summary of the method: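 His-tagged, C-terminally truncated NS5B (BK strain, 1b; 0.5 μg/ml) incubated with compound 60 min at 25 °C on 3′UTR-derived substrate RNA (5 μg/ml), 50 μM ATP/GTP/CTP, 2 μM UTP plus [3H]UTP, pH 7.5. Acid-precipitated RNA counted; IC50 from radioactivity with and without compound.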

[2] = biological target: T2, HCV polymerase (NS5B) type 1a (Hepatitis C virus genotype 1a, UniProt P26664); experiment: Assay of enzyme (HCV polymerase) inhibitory activity, type 1a enzyme; assay type: biochemical, HCV type 1a (cloned from the blood of patients); conditions: HCV polymerase inhibitory activity (IC50), 1a, type 1a enzyme 1.5 μg/ml, 25° C., 60 min
T2 construct: made in house; host or cells: Escherichia coli (by the 'similar method' of the 1b enzyme)
Summary of the method: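 His-tagged NS5B, C-terminal 47 residues deleted, type 1a at 1.5 μg/ml, with 5 μg/ml HCV 3′UTR substrate RNA, 50 μM ATP/GTP/CTP, 2 μM UTP plus [3H]UTP, pH 7.5 Tris, 5 mM MgCl2; 60 min at 25° C. TCA-precipitated RNA counted by scintillation; IC50 from radioactivity with vs. without compound.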

For `CC(=O)N1CCN(S(=O)(=O)c2ccc(C(C)C)cc2)[C@@H](C(=O)NCc2ccc(-c3csnn3)cc2)C1` [Example 492, (R)-4-acetyl-1-(4-isopropyl-benzenesulfonyl)-piperazine-2-carboxylic acid 4-[1,2,3]thiadiazol-4-yl-benzylamide], the IC50 [1] was 0.1 to 1 µM and the IC50 [2] was > 1 µM.

`CC(C)c1ccc(CNC(=O)[C@H]2CN(c3cnn(CC(=O)O)c3)CCN2S(=O)(=O)c2ccc(OC(F)(F)F)cc2)cc1` [Example 493, {4-[(R)-3-(4-isopropyl-benzylcarbamoyl)-4-(4-trifluoromethoxy-benzenesulfonyl)-piperazin-1-yl]-pyrazol-1-yl}-acetic acid] showed an IC50 [1] of 0.1 to 1 µM and an IC50 [2] of 0.1 to 1 µM.

For `CCCc1ccc(CNC(=O)[C@H]2CN(c3cc(C)c(C(N)=O)nn3)CCN2S(=O)(=O)c2ccc(OC(F)(F)F)cc2)cc1` [Example 494, 4-methyl-6-[(R)-3-(4-propyl-benzylcarbamoyl)-4-(4-trifluoromethoxy-benzenesulfonyl)-piperazin-1-yl]-pyridazine-3-carboxylic acid amide], the IC50 [1] was < 0.1 µM and the IC50 [2] was < 0.1 µM.

`CCC(F)(F)c1ccc(CNC(=O)[C@H]2CN(C(=O)Nc3nnc(C(=O)N4CC[C@@H](O)C4)s3)CCN2S(=O)(=O)c2ccc(OC(F)(F)F)cc2)cc1` [Example 495, (R)-4-(4-trifluoromethoxy-benzenesulfonyl)-piperazine-1,3-dicarboxylic acid 3-[4-(1,1-difluoro-propyl)-benzylamide] 1-{[5-((R)-3-hydroxy-pyrrolidine-1-carbonyl)-[1,3,4]thiadiazol-2-yl]-amide}] was tested, and the IC50 [1] was 0.1 to 1 µM and the IC50 [2] was > 1 µM.

In the case of `CCC(F)(F)c1ccc(CNC(=O)[C@H]2CN(C(=O)Nc3nnc(C(=O)N4CCC(O)CC4)s3)CCN2S(=O)(=O)c2ccc(OC(F)(F)F)cc2)cc1` [Example 496, (R)-4-(4-trifluoromethoxy-benzenesulfonyl)-piperazine-1,3-dicarboxylic acid 3-[4-(1,1-difluoro-propyl)-benzylamide] 1-{[5-(4-hydroxy-piperidine-1-carbonyl)-[1,3,4]thiadiazol-2-yl]-amide}], the IC50 [1] is reported as > 1 µM and the IC50 [2] is reported as > 1 µM.

In the case of `CCC(F)(F)c1ccc(CNC(=O)[C@H]2CN(C(=O)Nc3nnc(C(=O)N4CCOCC4)s3)CCN2S(=O)(=O)c2ccc(OC(F)(F)F)cc2)cc1` [Example 497, (R)-4-(4-trifluoromethoxy-benzenesulfonyl)-piperazine-1,3-dicarboxylic acid 3-[4-(1,1-difluoro-propyl)-benzylamide] 1-{[5-(morpholine-4-carbonyl)-[1,3,4]thiadiazol-2-yl]-amide}], the IC50 [1] is reported as > 1 µM and the IC50 [2] is reported as > 1 µM.

`CCC(F)(F)c1ccc(CNC(=O)[C@H]2CN(C(=O)Cc3cn(C)cn3)CCN2S(=O)(=O)c2ccc(OC(F)(F)F)cc2)cc1` [Example 498, (R)-4-[2-(1-methyl-1H-imidazol-4-yl)-acetyl]-1-(4-trifluoromethoxy-benzenesulfonyl)-piperazine-2-carboxylic acid 4-(1,1-difluoro-propyl)-benzylamide] showed an IC50 [1] of 0.1 to 1 µM and an IC50 [2] of 0.1 to 1 µM.

`CCCc1ccc(CNC(=O)[C@H]2CN(c3nc(C)c(C(=O)O)s3)CCN2S(=O)(=O)c2ccc(OC(F)(F)F)c(CCC)c2)cc1` [Example 499, 4-methyl-2-[(R)-3-(4-propyl-benzylcarbamoyl)-4-(3-propyl-4-trifluoromethoxy-benzenesulfonyl)-piperazin-1-yl]-thiazole-5-carboxylic acid] was tested, and the IC50 [1] was < 0.1 µM and the IC50 [2] was < 0.1 µM.

`CC(C)(C)c1ccc(CNC(=O)[C@H]2CN(C(=O)Cc3ccncc3)CCN2S(=O)(=O)c2ccc(OC(F)(F)F)cc2)cc1` [Example 500, (R)-4-(2-pyridin-4-yl-acetyl)-1-(4-trifluoromethoxy-benzenesulfonyl)-piperazine-2-carboxylic acid 4-tert-butyl-benzylamide] was tested, and the IC50 [1] was < 0.1 µM and the IC50 [2] was < 0.1 µM.

`CC(C)(C)c1ccc(CNC(=O)[C@H]2CN(c3cnc(C(=O)O)cn3)CCN2S(=O)(=O)c2ccc(OC(F)(F)F)cc2)cc1` [Example 501, (R)-3-(4-tert-butyl-benzylcarbamoyl)-4-(4-trifluoromethoxy-benzenesulfonyl)-3,4,5,6-tetrahydro-2H-[1,2′]bipyrazinyl-5′-carboxylic acid] was tested, and the IC50 [1] was < 0.1 µM and the IC50 [2] was < 0.1 µM.

`CCC(F)(F)c1ccc(CNC(=O)[C@H]2CN(C(=O)Nc3ccnc(C(=O)O)c3)CCN2S(=O)(=O)c2ccc(OC(F)(F)F)cc2)cc1` [Example 502, 4-{[(R)-3-[4-(1,1-difluoro-propyl)-benzylcarbamoyl]-4-(4-trifluoromethoxy-benzenesulfonyl)-piperazine-1-carbonyl]-amino}-pyridine-2-carboxylic acid] gave an IC50 [1] of 0.1 to 1 µM and an IC50 [2] of 0.1 to 1 µM.

With `CCC(F)(F)c1ccc(CNC(=O)[C@H]2CN(C(=O)Nc3ccnc(C(N)=O)c3)CCN2S(=O)(=O)c2ccc(OC(F)(F)F)cc2)cc1` [Example 503, (R)-4-(4-trifluoromethoxy-benzenesulfonyl)-piperazine-1,3-dicarboxylic acid 1-[(2-carbamoyl-pyridin-4-yl)-amide] 3-[4-(1,1-difluoro-propyl)-benzylamide]] the IC50 [1] was < 0.1 µM and the IC50 [2] was 0.1 to 1 µM.

`CCC(F)(F)c1ccc(CNC(=O)[C@H]2CN(C(=O)Nc3ccnc(C(=O)N(C)C)c3)CCN2S(=O)(=O)c2ccc(OC(F)(F)F)cc2)cc1` [Example 504, (R)-4-(4-trifluoromethoxy-benzenesulfonyl)-piperazine-1,3-dicarboxylic acid 3-[4-(1,1-difluoro-propyl)-benzylamide] 1-[(2-dimethylcarbamoyl-pyridin-4-yl)-amide]] was tested, and the IC50 [1] was < 0.1 µM and the IC50 [2] was < 0.1 µM.

`CCCc1ccc(CNC(=O)[C@H]2CN(c3nc(C)c(CN(C)C)s3)CCN2S(=O)(=O)c2ccc(OC(F)(F)F)cc2)cc1` [Example 505, (R)-4-(5-dimethylaminomethyl-4-methyl-thiazol-2-yl)-1-(4-trifluoromethoxy-benzenesulfonyl)-piperazine-2-carboxylic acid 4-propyl-benzylamide] was tested, and the IC50 [1] was < 0.1 µM and the IC50 [2] was < 0.1 µM.

`CCCc1ccc(CNC(=O)[C@H]2CN(c3nc(C)c(CNC)s3)CCN2S(=O)(=O)c2ccc(OC(F)(F)F)cc2)cc1` [Example 506, (R)-4-(4-methyl-5-methylaminomethyl-thiazol-2-yl)-1-(4-trifluoromethoxy-benzenesulfonyl)-piperazine-2-carboxylic acid 4-propyl-benzylamide] was tested, and the IC50 [1] was < 0.1 µM and the IC50 [2] was < 0.1 µM.

`CCCc1ccc(CNC(=O)[C@H]2CN(c3cnc(C(=O)OC)c(N)n3)CCN2S(=O)(=O)c2ccc(OC(F)(F)F)cc2)cc1` [Example 507, (R)-6′-amino-3-(4-propyl-benzylcarbamoyl)-4-(4-trifluoromethoxy-benzenesulfonyl)-3,4,5,6-tetrahydro-2H-[1,2′]bipyrazinyl-5′-carboxylic acid methyl ester] was tested, and the IC50 [1] was < 0.1 µM and the IC50 [2] was < 0.1 µM.

In the case of `CCC(F)(F)c1ccc(CNC(=O)[C@H]2CN(C(=O)Cc3ccncc3)CCN2S(=O)(=O)c2ccc(OC(F)(F)F)cc2)cc1` [Example 508, (R)-4-(2-pyridin-4-yl-acetyl)-1-(4-trifluoromethoxy-benzenesulfonyl)-piperazine-2-carboxylic acid 4-(1,1-difluoro-propyl)-benzylamide], the IC50 [1] is reported as < 0.1 µM and the IC50 [2] is reported as < 0.1 µM.

With `CCCc1ccc(CNC(=O)[C@H]2CN(c3nc(C)c(C(=O)O)s3)CCN2S(=O)(=O)c2ccc(OC(F)(F)F)c(F)c2)cc1` [Example 509, 2-[(R)-4-(3-fluoro-4-trifluoromethoxy-benzenesulfonyl)-3-(4-propyl-benzylcarbamoyl)-piperazin-1-yl]-4-methyl-thiazole-5-carboxylic acid] the IC50 [1] was < 0.1 µM and the IC50 [2] was < 0.1 µM.

With `CCCc1ccc(CNC(=O)[C@H]2CN(c3nc(CO)cs3)CCN2S(=O)(=O)c2ccc(OC(F)(F)F)cc2)cc1` [Example 510, (R)-4-(4-hydroxymethyl-thiazol-2-yl)-1-(4-trifluoromethoxy-benzenesulfonyl)-piperazine-2-carboxylic acid 4-propyl-benzylamide] the IC50 [1] was < 0.1 µM and the IC50 [2] was < 0.1 µM.

`CCC(F)(F)c1ccc(CNC(=O)[C@H]2CN(C(=O)Nc3ccnc(CO)c3)CCN2S(=O)(=O)c2ccc(OC(F)(F)F)cc2)cc1` [Example 511, (R)-4-(4-trifluoromethoxy-benzenesulfonyl)-piperazine-1,3-dicarboxylic acid 3-[4-(1,1-difluoro-propyl)-benzylamide] 1-[(2-hydroxymethyl-pyridin-4-yl)-amide]] was tested, and the IC50 [1] was < 0.1 µM and the IC50 [2] was < 0.1 µM.

For `CCC(F)(F)c1ccc(CNC(=O)[C@H]2CN(C(=O)Nc3ccnc(C(=O)NC4CC4)c3)CCN2S(=O)(=O)c2ccc(OC(F)(F)F)cc2)cc1` [Example 512, (R)-4-(4-trifluoromethoxy-benzenesulfonyl)-piperazine-1,3-dicarboxylic acid 1-[(2-cyclopropylcarbamoyl-pyridin-4-yl)-amide] 3-[4-(1,1-difluoro-propyl)-benzylamide]], the IC50 [1] was < 0.1 µM and the IC50 [2] was < 0.1 µM.

Reference: patent US8017612B2, “Piperazine compound and use thereof as a HCV polymerase inhibitor” (priority 2006, dated 2011)
